In paper PMC12394895, “Detection and characterisation of ligand-induced conformational changes in acetylcholine binding proteins using biosensors and X-ray crystallography” (RSC Chemical Biology, 2025):

How the values were obtained:
Ls-AChBP [1] = molecular target: T1, Ls-AChBP (Lymnaea stagnalis, UniProt P58154); assay: GCI biosensor, steady state; format: binding
T1 construct: soluble homopentamer, AChBP pentamer 125 kDa; amine-coupled for SAW and GCI

Ls-AChBP [2] = molecular target: T1, Ls-AChBP; assay: SAW biosensor, phase signal; format: binding; conditions: pH 7.4, 25 °C, 5% DMSO; immobilised protein; unreliable (very rough approximation, steady state not always reached)
Text: SAW biosensor, phase signal on Ls-AChBP

T1 sequence (P58154 20-229): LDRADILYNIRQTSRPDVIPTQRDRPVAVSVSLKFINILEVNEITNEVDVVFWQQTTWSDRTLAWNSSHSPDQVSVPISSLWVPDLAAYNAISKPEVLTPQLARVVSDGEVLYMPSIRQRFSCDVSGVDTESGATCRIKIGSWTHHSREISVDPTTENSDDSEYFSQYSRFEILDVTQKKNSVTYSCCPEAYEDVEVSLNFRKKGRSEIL

## Cn1ccnc1/C=C/c1ccc(O)c(O)c1 [VUF22430]
Ls-AChBP [1]
  Kd: 1300 nM

## CCn1ccnc1-c1cccc(-c2ccccn2)n1 [VUF24234]
Ls-AChBP [1]
  Kd: 5000 nM

## CC(=O)OCC[N+](C)(C)C [acetylcholine]
Ls-AChBP [2]
  Phase KD: 610 nM

## CN1CCC[C@H]1c1cccnc1 [nicotine]
Ls-AChBP [2]
  Phase KD: 35 nM

## VUF6105
Ls-AChBP [2]
  Phase KD: 12000 nM
